Results reported in patent publication US20200109394A1, “COMPOSITIONS AND METHODS FOR ISOLATING CIRCULATING CELLS” (Prescient Pharma LLC, priority 2018, published 2020).

What was measured:
HT29 cells [1] = test: Depletion of Fe2DG-loaded HT29 cells by external magnet from mixture with whole blood (FACS); assay type: cell-based; conditions: Fe2DG 1 mg per 1 ml in human whole blood, RT 2 hours, 30 min inside round magnet vs outside
Procedure: In this Example, the effect of external magnet on suspension HT29 cells (human adenocarcinoma) in whole blood after adding of Fe2DG was studied. For routine maintenance, HT29 cells (ATCC HTB-38) were grown in McCoy's 5A complete growth medium (Cat. No. 30-2007; ATCC, Manassas, Va.) supplemented by 10% FBS, and 1× Penicillin/Streptomycin in an incubator at 37° C. and 5% CO2. Cells were passaged every 4 days. The cells were detached from flasks using trypsin and re-suspended in 5 mL of fresh McCoy's 5A medium. Suspension of HT29 cells (ATCC HTB-38) was count by Countess automated cell counter (Invitrogen). Results: total 1.5×10^6/ml, live cells 1.4×10^6/ml, dead cells 1.3×10^5/ml, Viability 91% Cells were stained by BCECF AM (Life technologies Ref # B1150) intracellular fluorescent dye, according manufacturer instructions. 1 mg of BCECF AM (Invitrogen) was dissolved in 1 ml of DMSO and 10 aliquots were prepared. 1 aliquot was dissolved in 10 ml of Hank's Balanced Salt Solution to make working concentration (0.016 mM). Working solution of BCECF AM was added to HT29 cells suspension (5 ml of BCECF AM 5 ml of HT29 cells suspension in medium) and incubated in room temperature for 30 minutes in the dark. 500 ul of HT29 suspension was added to 4 ml of fresh human volunteer whole blood. Fe2DG in final concentration 1 mg per 1 ml was added. The blood then was incubated in RT for 2 hours. […]

WBC = test: Effect on WBC of magnetic trapping in the HT29/whole blood mixture with Fe2DG (FACS); assay type: cell-based; conditions: Fe2DG 1 mg per 1 ml in human whole blood, RT 2 hours, 30 min inside round magnet
Procedure: 500 ul of HT29 suspension was added to 4 ml of fresh human volunteer whole blood. Fe2DG in final concentration 1 mg per 1 ml was added. The blood then was incubated in RT for 2 hours. Then the blood was divided on two portions. Both portions were placed inside of plastic tube (10 cm long, 3 mm outside diameter). One tube was placed inside of the round magnet, another tube was outside of the magnet. After incubation for 30 min; contents of both tubes were gently pushed out. RBC were lysed by adding 4 volumes of distillate water for 30 sec. Then PBS was added to restore osmolarity. After centrifugation for 5 min 1000 rpm and removing of supernatant, the pellet was resuspended in 0.5 ml of PBS and introduced for analysis by BD FACS Aria III

A375-eGFP-puro cells = test: Enrichment of A375-eGFP-puro cells incubated with Fe2DG by external magnet from mixture with whole human blood (FACS); assay type: cell-based; conditions: Fe2DG 1 mg per 1 ml in human whole blood, RT 2 hours, 30 min in magnet; fraction #2 (tube out of magnet) vs fraction #1, FACS
Procedure: In this second Example, the effect of external magnet on suspension A375-eGFP-puro cells (human melanoma) in whole blood after adding of Fe2DG was studied.
A375-eGFP-puro cells (Imanis Life Science) has enhanced Green Fluorescent Protein as a reporter. And can be detected by fluorescent microscope of FACS because of green fluorescence.
For routine maintenance, A375-eGFP-puro cells were grown in DMEM complete growth medium (Cat. No. 30-2002; ATCC, Manassas, Va.) supplemented by 10% FBS, Penicillin/Streptomycin and 1 ug/ml Puromycin in an incubator at 37° C. and 5% CO2. Cells were passaged every 4 days. The cells were detached from flasks using trypsin and re-suspended in 5 mL of fresh DMEM medium.
500 ul of A375-eGFP-puro cells suspension was added to 4 ml of fresh human volunteer whole blood. Fe2DG in final concentration 1 mg per 1 ml was added. The blood then was incubated in RT for 2 hours. Then the blood was placed inside of plastic tube (10 cm long, 3 mm outside diameter). The tube was placed inside of the round magnet. After incubation for 30 min; 0.1 ml of the blood was gently pushed through the tube and through the magnet. […] After centrifugation for 5 min 1000 rpm and removing of supernatant, the pellet was resuspended in 0.5 ml of PBS and introduced for analysis by BD fluorescence-activated cell sorter (FACS) Aria III.

HT29 cells [2] = test: Prussian blue iron staining of HT29 cells after incubation in medium with Fe2DG; assay type: cell-based, human; conditions: Fe2DG 1 mg/ml in DMEM no glucose with 10% FBS, two hours
Procedure: In this third Example, the differential ability of normal vs cancer cells (higher for malignant cells) to accumulate Iron (Fe) from Fe2DG added to medium was studied. For routine maintenance, HT29 cells (ATCC HTB-38) were grown in McCoy's 5 A complete growth medium (Cat. No. 30-2007; ATCC, Manassas, Va.) supplemented by 10% FBS, and 1× Penicillin/Streptomycin in an incubator at 37° C. and 5% CO2. Cells were passaged every 4 days. For Fe2DG treatments, HT29 cells (ATCC HTB-38) cells were grown in 25 cm^2 Nunclon Delta Surface flasks (Cat. No. 136196; Thermo Fisher Scientific, Waltham, Mass.) with McCoy's 5A complete medium and kept in an incubator at 37° C. and 5% CO2 until close to 75% confluence was reached. Then medium for both cell types was replaced by DMEM no glucose (ThermoFisher Cat. No. 11966025) supplemented by 10% FBS and Fe2DG 1 mg/ml for two hours. Then medium was removed and both flasks were stained by Prussian blue staining kit “Advanced testing Iron stain” (ThermoFisher Cat. No. 87006). Cells in the flasks were fixed by 10% Formalin, then rinsed by deionized water. Then the cells were stained by freshly prepared Working Iron Solution 30 minutes at room temperature. Then the cells were rinsed by deionized water and counterstain by Nuclear Red Satin Solution for 30 seconds. […]

[3] = tested on: CRL-1790 cells (human fibroblasts); test: Prussian blue iron staining of CRL-1790 cells after incubation in medium with Fe2DG; assay type: cell-based; conditions: Fe2DG 1 mg/ml in DMEM no glucose with 10% FBS, two hours
Procedure: In this third Example, the differential ability of normal vs cancer cells (higher for malignant cells) to accumulate Iron (Fe) from Fe2DG added to medium was studied. For routine maintenance, CCD 841 CoN human colon fibroblast cells (CRL-1790; ATCC, Manassas, Va.) were grown in EMEM complete growth medium (Cat. No. 30-2003; ATCC, Manassas, Va.) supplemented by 10% FBS, and 1× Penicillin/Streptomycin in an incubator at 37° C. and 5% CO2. Cells were passaged every 4 days. For Fe2DG treatments, CCD 841 CoN cells were grown in 25 cm^2 Nunclon Delta Surface flasks (Cat. No. 136196; Thermo Fisher Scientific, Waltham, Mass.) with EMEM complete medium and kept in an incubator at 37° C. and 5% CO2 until close to 75% confluence was reached. Then medium for both cell types was replaced by DMEM no glucose (ThermoFisher Cat. No. 11966025) supplemented by 10% FBS and Fe2DG 1 mg/ml for two hours. Then medium was removed and both flasks were stained by Prussian blue staining kit “Advanced testing Iron stain” (ThermoFisher Cat. No. 87006). Cells in the flasks were fixed by 10% Formalin, then rinsed by deionized water. Then the cells were stained by freshly prepared Working Iron Solution 30 minutes at room temperature. Then the cells were rinsed by deionized water and counterstain by Nuclear Red Satin Solution for 30 seconds. […]

HT29 cells [4] = test: Depletion of HT29 cells loaded with Fe2DG by external magnet in McCoy's 5A medium (microscopy); assay type: cell-based, human; conditions: Fe2DG 1 mg per 1 ml in McCoy's 5A medium with 10% FBS, RT 1 hour, 30 min inside round magnet vs outside, Hematoxylin stain
Procedure: In this fourth Example, the effect of external magnet on suspension HT29 cells (human adenocarcinoma) in complete McCoy's 5A medium after adding of Fe2DG was studied. Suspension of HT29 cells (ATCC HTB-38) in McCoy's 5A medium with 10% of FBS was count by Countess automated cell counter (Invitrogen). Results: live cells 3.6×10^6/ml, dead cells 1.6×10^5/ml, Viability 96% Fe2DG was added to the cell suspension in final concentration 1 mg per 1 ml. Cells then were incubated in RT for 1 hour. Then the suspension was divided on two portions. Both portions were placed inside of plastic tube (10 cm long, 3 mm in diameter). One tube was placed inside of the round magnet, another tube was outside of the magnet. After incubation for 30 min; contains of both tubes were gently pushed out, and placed on the glass slide, and stained by Hematoxylin. Slides were examined under light microscope Olympus BX51 and pictures were taken using Olympus DP73 digital camera.

## Fe (III)-2 deoxy D glucose [Fe2DG]
HT29 cells [1]
  depletion of BCECF AM stained HT29 cells (gate 4) in the sample pushed out of the tube inside the magnet: significant depletion
WBC
  specificity of magnetic trapping: effect on WBC: without affect WBC
A375-eGFP-puro cells
  enrichment of A375-eGFP-puro cells in the second fraction (2nd): 18.5 times
HT29 cells [2]
  accumulation of iron (Prussian blue stain) in cancer cells (HT29): significant accumulation of iron
[3]
  accumulation of iron (Prussian blue stain) in normal human fibroblasts (CRL-1790): practically no accumulation of Iron
HT29 cells [4]
  depletion of HT29 cells in the sample pushed out of the tube inside the magnet: significant depletion
